Source: patent publication US9610273B2, “Method for the treatment of hypercholesterolemia” (SAMI LABS LIMITED, priority 2014, dated 2017)
Marks after values point to notes of the source that are not given here.

Assays:
mice = test: Acute Oral Toxicity of Calebin A; format: in vivo
Description: No mortality was observed up to 2000 mg/kg p.o. in mice up to two weeks of observation.

[1] = test system: C57 mice on high fat diet (60 kcal % Fat); test: Effect of Calebin A on serum clinical chemistry parameters in high fat diet obese mice (hypercholesterolemia and hyperlipidemia); format: in vivo; details: for change in mean Albumin values: female animals, considered incidental; for ALT/SGPT / AST/SGOT / Albumin / Glucose / Total Cholesterol / Total Protein / Triglycerides / HDL / LDL / VLDL: 28 days, serum, n = 5; for ALT/SGPT / AST/SGOT / Albumin / Glucose / Total Cholesterol / Total Protein / Triglycerides: Mean ± SD; for HDL / LDL / VLDL: mean
Description: d. Diet: The animals were fed ad libitum with AMRUT Laboratory Animal feed manufactured by Pranav Agro Industries Limited, Sangli, Maharastra throughout the acclimatization Open Source Diet D12450B diet (with 10 kcal % Fat) and Open Source Diet D12492 High fat diet (with 60 kcal % Fat) manufactured by Research Diet Inc, USA procured from Indus Marketing, Hyderabad, Andhra Pradesh, INDIA was used for induction of obesity and the main study.
Grouping of animals was done on the last day of acclimatization by body weight randomization and stratification method.
The animals were divided into 5 groups viz., Group 1, 2, 3, 4 and 5 consisting of 10 animals (5 male and 5 female) each.
a. Dose Volume: Dose volume/animal=10 ml/kg body weight for all animals throughout the study period
b. Obesity induction: The G1 Control group animals were fed with normal control diet feed D12450B containing 10 kcal % fat and the G2 to G5 group animals were fed with high fat diet feed D12492 containing 60 kcal % fat during the induction of obesity and during main study. Obesity induction was done considering the scientific rationale that obesity is a serious risk factor for hypercholesterolemia.
c. Main Study: The main study was started after the induction of obesity. The 3 doses of Calebin A was administered to animals from Day 29 daily consecutively for a period of 28 days. The feeding of diets continued in the main study in a similar way as performed in induction of obesity. The G1 Control and G2 High fat diet control group animals were administered with 0.5% CMC (Carboxy Methyl Cellulose) while other group animals received test item from Day 29 to Day 56 of the study period. The dose volume of administration was maintained according to the weekly body weight of individual animals.
d. Duration of the study: The total duration of the study was 61 days (5 days Acclimatization period+28 days Induction of obesity+[…] Main study).
The raw data obtained from the present study were subjected to computer statistical processing. The computer printout of the data (in the form of appendix) was verified with the original raw data. After verification, the data was subjected to One-way ANOVA (Analysis of Variance) with Dunnett's post test for the data on body weights, hematology and clinical chemistry parameters, organ weights using GraphPad Prism version 5.01, GraphPad Software. All analyses and comparisons was evaluated at the 95% level of confidence (P<0.05), indicated by the designated by the superscripts of a where G1 is compared to G3, G4, G5, and G6 and b where G2 is compared to G3, G4, G5, and G6 throughout the report as stated below: *: Statistically significant (P<0.05) wherever applicable.
At the completion of the study period, blood samples were collected from all the animals in tubes containing potassium ethylene […] tetra acetic acid (K2-EDTA) anticoagulant for hematology and without anticoagulant for clinical chemistry. The blood samples collected in tubes without anticoagulant were centrifuged at 3000 rpm for 10 minutes to obtain serum. Blood samples were collected humanely from retro-orbital plexus puncture method under mild ether anesthesia with the help of a fine capillary tube. The following clinical chemistry parameters were analyzed.
The following clinical chemistry parameters (TABLE III) were analyzed using the “Erba Mannheim Chem Touch analyzer” (Transasia Bio-Medicals Ltd, India) from serum samples.

[2] = conclusion, doses of 5, 10 and 20 mg/kg body weight, hypercholesterolemic mammals
[3] = female mice, G3 5 mg/kg + High fat diet (60 kcal % Fat)
[4] = female mice, G4 10 mg/kg + High fat diet (60 kcal % Fat)
[5] = female mice, G5 20 mg/kg + High fat diet (60 kcal % Fat)
[6] = male and female animals, G3, G4, G5 (5, 10, 20 mg/kg + High fat diet) compared to G2 High fat diet Control
[7] = male animals, G3, G4, G5 (5, 10, 20 mg/kg + High fat diet) compared to G2 High fat diet Control
[8] = male mice, G3 5 mg/kg + High fat diet (60 kcal % Fat)
[9] = male mice, G4 10 mg/kg + High fat diet (60 kcal % Fat)
[10] = male mice, G5 20 mg/kg + High fat diet (60 kcal % Fat)

`COc1cc(/C=C/C(=O)COC(=O)/C=C/c2ccc(O)c(OC)c2)ccc1O` [Calebin A] was tested, and the Aggression (mice; mouse, in vivo, po) was “Aggression = Nil”, the Atexia (mice; mouse, in vivo, po) was “Atexia = Nil” and the Blanching (mice; mouse, in vivo, po) was “Blanching = Nil”. For the same compound, the “Clonic Convulsions” value (mice; mouse, in vivo, po) was “Clonic Convulsions = Nil”, the Corneal (mice; mouse, in vivo, po) was “Corneal = No effect” and the Cyanosis (mice; mouse, in vivo, po) was “Cyanosis = Nil”. For the same compound, the Diarrhea (mice; mouse, in vivo, po) was “Diarrhea = Nil”, the Excitation (mice; mouse, in vivo, po) was “Excitation = Nil” and the Fear (mice; mouse, in vivo, po) was “Fear = Nil”. For the same compound, the “Fecal Output” value (mice; mouse, in vivo, po) was “Fecal Output = Normal”, the “General Locomotor Activity” value (mice; mouse, in vivo, po) was “Normal” and the “General Movement” value (mice; mouse, in vivo, po) was “General Movement = Normal”. For the same compound, the Hyperaemia (mice; mouse, in vivo, po) was “Hyperaemia = Nil”, the “Muscular Weakness” value (mice; mouse, in vivo, po) was “Muscular Weakness = Nil” and the Passive (mice; mouse, in vivo, po) was “Passive = Nil”. The “Pilo Erection” value (mice; mouse, in vivo, po) was “Pilo Erection = Nil”, the Pinnal (mice; mouse, in vivo, po) was “Pinnal = No effect” and the “Respiration Depth” value (mice; mouse, in vivo, po) was “Respiration Depth = Normal”. For the same compound, the “Respiration Rate” value (mice; mouse, in vivo, po) was “Respiration Rate = Normal”, the Salivation (mice; mouse, in vivo, po) was “Salivation = Nil” and the “Tonic Convulsion” value (mice; mouse, in vivo, po) was “Tonic Convulsion = Nil”. For the same compound, the Tremors (mice; mouse, in vivo, po) was “Tremors = Nil”, the “Urine Output” value (mice; mouse, in vivo, po) was “Urine Output = Normal” and the mortality (mice; up to 2000 mg/kg p.o., mice, up to two weeks of observation) was “No mortality”. For the same compound, the “HDL concentrations in the blood” value [1, 2] was “increased”, the “LDL concentrations in the blood” value [1, 2] was “decreased” and the “VLDL concentrations in the blood” value [1, 2] was “decreased”. For the same compound, the serum triglyceride concentrations ([1]; conclusion, doses of 5, 10 and 20 mg/kg body weight, hyperlipidemic mammals) was “lowered”, the “change in mean Albumin values” ([1]; G5 20 mg/kg + High fat diet compared to G1 Control (10 kcal % Fat)) was “statistically significant decrease” and the “change in mean Albumin values” ([1]; G5 20 mg/kg + High fat diet compared to G2 High fat diet Control) was “statistically significant decrease”. For the same compound, the ALT/SGPT [1, 3] was 41.73 ± 5.39 IU/L, the AST/SGOT [1, 3] was 80.51 ± 32.35 IU/L and the Albumin [1, 3] was 2.82 ± 0.19 g/dL. For the same compound, the Glucose [1, 3] was 134.52 ± 26.85 mg/dL, the “Total Cholesterol” value [1, 3] was 75.71 ± 13.90 mg/dL and the “Total Protein” value [1, 3] was 5.37 ± 0.80 g/dL. It also gave a Triglycerides [1, 3] of 60.15 ± 10.25 mg/dL, an HDL [1, 3] of 81.59 mg/dL and an LDL [1, 3] of 78.68 mg/dL. It also gave a VLDL [1, 3] of 15.14 mg/dL, an ALT/SGPT [1, 4] of 63.29 ± 32.86 IU/L and an AST/SGOT [1, 4] of 79.89 ± 50.05 IU/L. The Albumin [1, 4] was 2.80 ± 0.38 g/dL, the Glucose [1, 4] was 112.34 ± 11.35 mg/dL and the “Total Cholesterol” value [1, 4] was 47.54 ± 14.21 mg/dL. The “Total Protein” value [1, 4] was 4.91 ± 0.20 g/dL, the Triglycerides [1, 4] was 59.70 ± 4.33 mg/dL and the HDL [1, 4] was 66.85 mg/dL. For the same compound, the LDL [1, 4] was 61.20* ^b ± mg/dl, the VLDL [1, 4] was 9.51 mg/dL and the ALT/SGPT [1, 5] was 55.51 ± 16.94 IU/L. For the same compound, the AST/SGOT [1, 5] was 79.91 ± 36.82 IU/L, the Glucose [1, 5] was 93.58 ± 11.49 mg/dL and the “Total Cholesterol” value [1, 5] was 69.14 ± 21.88 mg/dL. For the same compound, the “Total Protein” value [1, 5] was 4.88 ± 0.27 g/dL, the Triglycerides [1, 5] was 52.88 ± 4.56 mg/dL and the HDL [1, 5] was 66.67 mg/dL. For the same compound, the LDL [1, 5] was 52.31** ^b ± mg/dl, the VLDL [1, 5] was 13.83 mg/dL and the “change in mean Low Density Lipoproteins values” [1, 6] was “decrease”. The “change in mean Very Low Density Lipoproteins values” [1, 6] was “decrease”, the “change in mean high Density Lipoproteins values” ([1]; male and female animals, G4, G5 (10, 20 mg/kg + High fat diet) compared to G2 High fat diet Control) was “increase” and the “change in mean Total Cholesterol values” [1, 7] was “decrease”. For the same compound, the “change in mean Triglycerides values” [1, 7] was “decrease”, the ALT/SGPT [1, 8] was 64.35 ± 24.58 IU/L and the AST/SGOT [1, 8] was 86.99 ± 35.22 IU/L. For the same compound, the Albumin [1, 8] was 2.73 ± 0.23 g/dL, the Glucose [1, 8] was 159.30 ± 17.02 mg/dL and the “Total Cholesterol” value [1, 8] was 63.46 ± 16.64 mg/dL. For the same compound, the “Total Protein” value [1, 8] was 4.74 ± 0.23 g/dL, the Triglycerides [1, 8] was 76.53 ± 17.11 mg/dL and the HDL [1, 8] was 20.46 mg/dL. For the same compound, the LDL [1, 8] was 85.55 mg/dL, the VLDL [1, 8] was 12.69 mg/dL and the ALT/SGPT [1, 9] was 54.81 ± 13.58 IU/L. The AST/SGOT [1, 9] was 89.48 ± 35.58 IU/L, the Albumin [1, 9] was 2.43 ± 0.42 g/dL and the Glucose [1, 9] was 130.49 ± 21.28 mg/dL. The “Total Protein” value [1, 9] was 5.08 ± 0.49 g/dL, the HDL [1, 9] was 41.80 mg/dL and the LDL [1, 9] was 97.45 mg/dL. For the same compound, the VLDL [1, 9] was 12.37*^b ± mg/dl, the ALT/SGPT [1, 10] was 48.44 ± 9.73 IU/L and the AST/SGOT [1, 10] was 90.17 ± 25.87 IU/L. The Albumin [1, 10] was 2.66 ± 0.17 g/dL, the Glucose [1, 10] was 105.89 ± 37.17 mg/dL and the “Total Cholesterol” value [1, 10] was 70.48 ± 14.59 mg/dL. For the same compound, the “Total Protein” value [1, 10] was 4.42 ± 0.48 g/dL, the HDL [1, 10] was 47.26 mg/dL and the LDL [1, 10] was 94.46 mg/dL. For the same compound, the VLDL [1, 10] was 14.10 mg/dL.
